ChEMBL document CHEMBL1201862, “PubChem BioAssay data set” (2004)
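How tested: cells in 96-well plates exposed to compound for 48 hours at five concentrations. GI50 = concentration required for 50% inhibition of growth.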 Activity calls are given as the source filed them. Cut-off read from the data, not from the text of the source: active = GI50 up to about 1.1 µM and inactive = higher.

How the values were obtained:
Assay in all cases: DTP human tumour cell line panel, 48 h
HCT-15 = test system: HCT-15
SK-MEL-2 = test system: SK-MEL-2
CCRF-CEM = test system: CCRF-CEM
SNB-75 = test system: SNB-75
IGROV-1 = test system: IGROV-1
A549 = test system: A549
NCI/ADR-RES = test system: NCI/ADR-RES
SF-539 = test system: SF-539
SNB-19 = test system: SNB-19
HCT-116 = test system: HCT-116
SK-OV-3 = test system: SK-OV-3
COLO 205 = test system: COLO 205
SW-620 = test system: SW-620
UACC-62 = test system: UACC-62
NCI-H226 = test system: NCI-H226
ACHN = test system: ACHN
TK-10 = test system: TK-10
T47D = test system: T47D
PC-3 = test system: PC-3
Hs-578T = test system: Hs-578T

Row | Structure (SMILES) | GI50 (HCT-15) [µM] | GI50 (SK-MEL-2) | GI50 (CCRF-CEM) | GI50 (SNB-75) | GI50 (IGROV-1) | GI50 (A549) | GI50 (NCI/ADR-RES) | GI50 (SF-539) | GI50 (SNB-19) | GI50 (HCT-116) | GI50 (SK-OV-3) | GI50 (COLO 205) | GI50 (SW-620) | GI50 (UACC-62) | GI50 (NCI-H226) | GI50 (ACHN) | GI50 (TK-10) | GI50 (T47D) | GI50 (PC-3) | GI50 (Hs-578T)
1 | Nc1nc(Cl)nc2c1ncn2C1CC(O)C(CO)O1 (centres undefined) | 45.9 | > 100 µM (inactive) | 0.0713 µM (active) | 36.6 µM (inactive) | 81.8 µM (inactive) | 4.26 µM (inactive) | 0.103 µM (active) | 20.3 µM (inactive) | 1.47 µM (inactive) | 4.04 µM (inactive) | 52.7 µM (inactive) | 33.4 µM (inactive) | 23 µM (inactive) | 0.463 µM (active) | 16.7 µM (inactive) | – | – | – | – | –
2 | COC(=O)C(Cc1ccc2c(c1)OCO2)(NC(=O)c1ccccc1)P(=O)(OC)OC (centres undefined) | > 100 | 63.5 µM (inactive) | > 100 µM (inactive) | > 100 µM (inactive) | > 100 µM (inactive) | > 100 µM (inactive) | – | > 100 µM (inactive) | > 100 µM (inactive) | > 100 µM (inactive) | > 100 µM (inactive) | > 100 µM (inactive) | > 100 µM (inactive) | > 100 µM (inactive) | > 100 µM (inactive) | > 100 µM (inactive) | > 100 µM (inactive) | – | – | –
3 | CCOC(=O)/C(Cl)=C(\C)Nc1nc2c(ccc3ccccc32)s1 | 26.1 | 26.6 µM (inactive) | 7.87 µM (inactive) | 14.6 µM (inactive) | > 100 µM (inactive) | – | > 100 µM (inactive) | – | > 100 µM (inactive) | 25.5 µM (inactive) | > 100 µM (inactive) | 47.9 µM (inactive) | 36.4 µM (inactive) | 41.9 µM (inactive) | 24.5 µM (inactive) | > 100 µM (inactive) | > 100 µM (inactive) | 13.6 µM (inactive) | 22.5 µM (inactive) | 35 µM (inactive)
4 | O=c1ccc2ccc(CBr)cc2o1 | 1.87 | 11.4 µM (inactive) | 1.78 µM (inactive) | > 100 µM (inactive) | 3.57 µM (inactive) | 15.5 µM (inactive) | 1.69 µM (inactive) | 3.97 µM (inactive) | 12.4 µM (inactive) | 1.88 µM (inactive) | – | – | 1.72 µM (inactive) | 10.8 µM (inactive) | 10.7 µM (inactive) | – | 1.75 µM (inactive) | 2.38 µM (inactive) | > 100 µM (inactive) | 9.84 µM (inactive)
5 | COc1cc(C2S/C(=C/c3ccccc3)C(=O)N2c2ccccc2Cl)cc(OC)c1OC (centres undefined) | 27.5 | 16 µM (inactive) | – | 6.21 µM (inactive) | – | 37.1 µM (inactive) | 25.6 µM (inactive) | – | 35.5 µM (inactive) | 19 µM (inactive) | 29.6 µM (inactive) | 33.3 µM (inactive) | – | 20 µM (inactive) | > 100 µM (inactive) | 44.4 µM (inactive) | 76.2 µM (inactive) | 5.26 µM (inactive) | 21.8 µM (inactive) | 16.5 µM (inactive)
6 | C=C1C(=O)O[C@@H]2[C@H](O)[C@@H](C)[C@@H]3C=CC(=O)[C@@]3(C)[C@@H](OC(=O)/C(C)=C/C)[C@H]12 | 0.377 | 0.557 µM (active) | 0.254 µM (active) | 2.03 µM (inactive) | 0.459 µM (active) | 1.98 µM (inactive) | 0.811 µM (active) | 0.468 µM (active) | 2.77 µM (inactive) | 0.3 µM (active) | 2.39 µM (inactive) | 0.344 µM (active) | 0.483 µM (active) | 0.342 µM (active) | 1.12 µM (inactive) | – | – | – | – | –
7 | Clc1nc(-[n+]2ccc(-c3ccncc3)cc2)nc(Nc2ccccc2)c1Cl | > 100 | > 100 µM (inactive) | 27.9 µM (inactive) | – | 59.7 µM (inactive) | > 100 µM (inactive) | > 100 µM (inactive) | > 100 µM (inactive) | > 100 µM (inactive) | > 100 µM (inactive) | > 100 µM (inactive) | > 100 µM (inactive) | 66.8 µM (inactive) | > 100 µM (inactive) | > 100 µM (inactive) | > 100 µM (inactive) | > 100 µM (inactive) | 43.7 µM (inactive) | > 100 µM (inactive) | > 100 µM (inactive)
8 | CC(C)(C)c1ccc2c(c1)OP1(Oc3c(Cl)cc(Cl)c4cccnc34)(O2)Oc2ccc(C(C)(C)C)cc2O1 | 4.53 | 10.2 µM (inactive) | 3.12 µM (inactive) | 15.5 µM (inactive) | 8.55 µM (inactive) | 6 µM (inactive) | 8.11 µM (inactive) | 7.78 µM (inactive) | 7.53 µM (inactive) | 5.22 µM (inactive) | 11.9 µM (inactive) | 13.4 µM (inactive) | 6.43 µM (inactive) | 5.37 µM (inactive) | 8.97 µM (inactive) | – | – | – | – | –
9 | Cc1ccc(S(=O)(=O)OCCN(CCOS(=O)(=O)c2ccc(C)cc2)c2ccc(C=O)cc2)cc1 | 30.1 | 16.5 µM (inactive) | 34.8 µM (inactive) | – | 36.1 µM (inactive) | 32.5 µM (inactive) | 36.2 µM (inactive) | 24.8 µM (inactive) | 60.8 µM (inactive) | 30.1 µM (inactive) | – | 28.1 µM (inactive) | 29.6 µM (inactive) | 20 µM (inactive) | – | 33.6 µM (inactive) | 36.3 µM (inactive) | 40.7 µM (inactive) | 32.7 µM (inactive) | 36.2 µM (inactive)
10 | C[C@H](N[C@H]1CCC[C@]1(O)C#Cc1ccc2c(c1)OCO2)c1ccccc1 | > 25 | 8.61 µM (inactive) | > 25 µM (inactive) | 15.4 µM (inactive) | 14.3 µM (inactive) | > 25 µM (inactive) | > 25 µM (inactive) | – | > 25 µM (inactive) | – | > 25 µM (inactive) | 9.25 µM (inactive) | – | > 25 µM (inactive) | > 25 µM (inactive) | > 25 µM (inactive) | > 25 µM (inactive) | 21.8 µM (inactive) | 13.6 µM (inactive) | > 25 µM (inactive)
11 | Cc1cc(O)nc(NN2C(Cl)C(=O)C2c2cccc(Cl)c2)n1 (centres undefined) | 17.4 | 16.7 µM (inactive) | 6.49 µM (inactive) | 20.8 µM (inactive) | 14 µM (inactive) | 47.8 µM (inactive) | – | 17.2 µM (inactive) | 27.9 µM (inactive) | > 10 µM (inactive) | – | > 10 µM (inactive) | 38 µM (inactive) | 23.1 µM (inactive) | – | 30 µM (inactive) | 36.1 µM (inactive) | – | – | –
